Experimental data published in patent US20240158446A1, “CYCLIC COMPOUND HAVING SELECTIVE INHIBITORY ACTION ON KRAS OVER HRAS AND NRAS” (CHUGAI SEIYAKU KABUSHIKI KAISHA, priority 2021, published 2024).

Columns and labels:
[1] = biological target: GDP-bound HRAS wild-type protein (Homo sapiens, UniProt P01112); test: Binding to HRAS by surface plasmon resonance (SPR), Single Cycle Kinetics; conditions: ratio of KD for GDP-bound HRAS wild-type protein to KD for KRAS, SPR
[2] = biological target: GDP-bound NRAS wild-type protein (Homo sapiens, UniProt P01111); test: Binding to NRAS by surface plasmon resonance (SPR), Single Cycle Kinetics; conditions: ratio of KD for GDP-bound NRAS wild-type protein to KD for KRAS, SPR
[3] = system: human lung cancer strain NCI-H441; test: cells; conditions: NCI-H441, 96 h, read-out: NCI-H441 IC50 (nM), NCI-H441 cell proliferation, 4 days, CellTiter-Glo;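 also: cell proliferation inhibition after four days measured by CellTiter-Glo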

GDP-bound NRAS wild-type protein, sequence (P01111 whole entry): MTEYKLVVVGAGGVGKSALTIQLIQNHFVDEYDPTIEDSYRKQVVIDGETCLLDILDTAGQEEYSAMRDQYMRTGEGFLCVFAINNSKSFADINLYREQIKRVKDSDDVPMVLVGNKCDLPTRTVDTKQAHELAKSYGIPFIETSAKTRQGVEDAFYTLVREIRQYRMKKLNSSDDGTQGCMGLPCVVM
GDP-bound HRAS wild-type protein, sequence (P01112 whole entry): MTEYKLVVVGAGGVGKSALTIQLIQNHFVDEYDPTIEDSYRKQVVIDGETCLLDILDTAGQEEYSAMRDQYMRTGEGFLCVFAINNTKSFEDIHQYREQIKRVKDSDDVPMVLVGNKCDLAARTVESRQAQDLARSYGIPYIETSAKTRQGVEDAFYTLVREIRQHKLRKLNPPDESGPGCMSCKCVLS

SMILES | HRAS/KRAS (KD ratio) [1] | NRAS/KRAS (KD ratio) [2] | IC50 [3]
CCCN(C)C(=O)[C@@H]1CC(=O)N(C)[C@@H](CC)C(=O)N[C@@H]([C@@H](C)CC)C(=O)N(C)CC(=O)N(C)[C@H]2C/C=C\CCN(C2=O)[C@@H](Cc2ccc(C(F)(F)F)cc2)C(=O)N(C)CC(=O)N[C@@H](CCc2ccc(C(F)(F)F)c(OC)c2)C(=O)N2C[C@H](OCC)C[C@H]2C(=O)NC2(CC(C)(C)C2)C(=O)N(C)[C@@H](C2CCCC2)C(=O)N1C [PP1654] | A (a compound having 10 or more and less than 20 is denoted as A) | A (a compound having 10 or more and less than 20 is denoted as A) | 2.5 nM
CC[C@H](C)[C@@H]1NC(=O)[C@H](CC2CC2)N(C)C(=O)C[C@@H](C(=O)N(C)C)N(C)C(=O)[C@H](C2CCCC2)N(C)C(=O)C2(CC(C)(C)C2)NC(=O)[C@@H]2C[C@@H](C)CN2C(=O)[C@H](CCc2ccc(C(F)(F)F)c(OC)c2)NC(=O)CN(C)C(=O)[C@H](Cc2ccc(C)cc2)N2CC/C=C\C[C@@H](C2=O)N(C)C(=O)CN(C)C1=O [PP1901] | B (a compound having 3 or more and less than 10 is denoted as B) | A (a compound having 10 or more and less than 20 is denoted as A) | 7.6 nM
CCC[C@H]1C(=O)N[C@@H]([C@@H](C)CC)C(=O)N(C)CC(=O)N(C)[C@H]2C/C=C\CCN(C2=O)[C@@H](Cc2ccc(C)cc2)C(=O)N(C)CC(=O)N[C@@H](CCc2cc(F)c(C(F)(F)F)c(F)c2)C(=O)N2C[C@H](C)C[C@H]2C(=O)NC2(CCC2)C(=O)N(C)[C@@H](C2CCCC2)C(=O)N(C)[C@H](C(=O)N(C)CC)CC(=O)N1C [PP1862] | A (a compound having 10 or more and less than 20 is denoted as A) | A (a compound having 10 or more and less than 20 is denoted as A) | 22.2 nM
CCO[C@@H]1C[C@H]2C(=O)NC(C)(C)C(=O)N(C)[C@@H](C3CCCC3)C(=O)N(C)[C@H](C(=O)N(C)CC)CC(=O)N(C)[C@@H](CC(C)C)C(=O)N[C@@H]([C@@H](C)CC)C(=O)N(C)CC(=O)N(C)[C@H]3C/C=C\CCN(C3=O)[C@@H](Cc3ccc(C(F)(F)F)cc3)C(=O)N(C)CC(=O)N[C@@H](CCc3cc(F)c(C(F)(F)F)c(F)c3)C(=O)N2C1 [PP1937] | A (a compound having 10 or more and less than 20 is denoted as A) | A (a compound having 10 or more and less than 20 is denoted as A) | 6.8 nM
CCC[C@H]1C(=O)N[C@@H]([C@@H](C)CC)C(=O)N(C)CC(=O)N(C)[C@H]2C/C=C\CCN(C2=O)[C@@H](Cc2ccc(C)cc2)C(=O)N(C)CC(=O)N[C@@H](CCc2ccc(C(F)(F)F)c(OC)c2)C(=O)N2C[C@@H](C)C[C@H]2C(=O)NC2(CCC2)C(=O)N(C)[C@@H](C2CCCC2)C(=O)N(C)[C@H](C(=O)N(C)CC)CC(=O)N1C [PP1840] | B (a compound having 3 or more and less than 10 is denoted as B) | A (a compound having 10 or more and less than 20 is denoted as A) | 26.8 nM
CCCOC[C@H]1C(=O)N[C@@H]([C@@H](C)CC)C(=O)N(C)CC(=O)N(C)[C@H]2C/C=C\CCN(C2=O)[C@@H](Cc2ccc(C(F)(F)F)cc2)C(=O)N(C)CC(=O)N[C@@H](CCc2ccc(C(F)(F)F)c(OC)c2)C(=O)N2C[C@@H](C)C[C@H]2C(=O)NC2(CC(C)(C)C2)C(=O)N(C)[C@@H](C2CCCC2)C(=O)N(C)[C@H](C(=O)N(C)C)CC(=O)N1C [PP1997] | B (a compound having 3 or more and less than 10 is denoted as B) | A (a compound having 10 or more and less than 20 is denoted as A) | 14.2 nM
CCCN(C)C(=O)[C@@H]1CC(=O)N(C)[C@@H](CC(F)F)C(=O)N[C@@H]([C@@H](C)CC)C(=O)N(C)CC(=O)N(C)[C@H]2C/C=C\CCN(C2=O)[C@@H](Cc2ccc(C(F)(F)F)cc2)C(=O)N(C)CC(=O)N[C@@H](CCc2ccc(C(F)(F)F)c(OC)c2)C(=O)N2C[C@@H](C)C[C@H]2C(=O)NC2(CCC2)C(=O)N(C)[C@@H](C2CCCC2)C(=O)N1C [PP2024] | B (a compound having 3 or more and less than 10 is denoted as B) | A (a compound having 10 or more and less than 20 is denoted as A) | 10.1 nM
CC[C@H](C)[C@@H]1NC(=O)[C@H](C2CC2)N(C)C(=O)C[C@@H](C(=O)N(C)C)N(C)C(=O)[C@H](C2CCCC2)N(C)C(=O)C2(CCC2)N(C)C(=O)[C@@H]2C[C@@H](C)CN2C(=O)[C@H](CCc2cc(F)c(C(F)(F)F)c(F)c2)NC(=O)CN(C)C(=O)[C@H](Cc2ccc(C)cc2)N2CC/C=C\C[C@@H](C2=O)N(C)C(=O)CN(C)C1=O [PP1788] | B (a compound having 3 or more and less than 10 is denoted as B) | B (a compound having 3 or more and less than 10 is denoted as B) | 6.2 nM
CC[C@H](C)[C@@H]1NC(=O)[C@H](CC(C)C)N(C)C(=O)C[C@@H](C(=O)N(C)C)N(C)C(=O)[C@H](C2CCCC2)N(C)C(=O)C2(CCC2)NC(=O)[C@@H]2C[C@H](C)CN2C(=O)[C@H](CCc2ccc(C(F)(F)F)c(Cl)c2)NC(=O)CN(C)C(=O)[C@H](Cc2ccc(C)cc2)N2CC/C=C\C[C@@H](C2=O)N(C)C(=O)CN(C)C1=O [PP1852] | B (a compound having 3 or more and less than 10 is denoted as B) | A (a compound having 10 or more and less than 20 is denoted as A) | 6 nM
CCCN(C)C(=O)[C@@H]1CC(=O)N(C)[C@@H](C2CCC2)C(=O)N[C@@H]([C@@H](C)CC)C(=O)N(C)CC(=O)N(C)[C@H]2C/C=C\CCN(C2=O)[C@@H](Cc2ccc(C(F)(F)F)cc2)C(=O)N(C)CC(=O)N[C@@H](CCc2cc(F)c(C(F)(F)F)c(F)c2)C(=O)N2C[C@H](OCC)C[C@H]2C(=O)NC2(CCC2)C(=O)N(C)[C@@H](C2CCCC2)C(=O)N1C [PP1998] | B (a compound having 3 or more and less than 10 is denoted as B) | A (a compound having 10 or more and less than 20 is denoted as A) | 16.1 nM
CCC[C@H]1C(=O)N[C@@H]([C@@H](C)CC)C(=O)N(C)CC(=O)N(C)[C@H]2C/C=C\CCN(C2=O)[C@@H](Cc2ccc(C)cc2)C(=O)N(C)CC(=O)N[C@@H](CCc2ccc(C(F)(F)F)c(OC)c2)C(=O)N2C[C@@H](C)C[C@H]2C(=O)NC2(CC(C)(C)C2)C(=O)N(C)[C@@H](C2CCCC2)C(=O)N(C)[C@H](C(=O)N(C)C)CC(=O)N1C [PP1888] | B (a compound having 3 or more and less than 10 is denoted as B) | A (a compound having 10 or more and less than 20 is denoted as A) | 3.5 nM
CC[C@H](C)[C@@H]1NC(=O)[C@H](CC2CC2)N(C)C(=O)C[C@@H](C(=O)N(C)CC)N(C)C(=O)[C@H](C2CCCC2)N(C)C(=O)C2(CC(C)(C)C2)NC(=O)[C@@H]2C[C@@H](C)CN2C(=O)[C@H](CCc2ccc(C(F)(F)F)c(OC)c2)NC(=O)CN(C)C(=O)[C@H](Cc2ccc(C)cc2)N2CC/C=C\C[C@@H](C2=O)N(C)C(=O)CN(C)C1=O [PP1902] | A (a compound having 10 or more and less than 20 is denoted as A) | A (a compound having 10 or more and less than 20 is denoted as A) | 12.5 nM
CCO[C@@H]1C[C@H]2C(=O)NC3(CC(C)(C)C3)C(=O)N(C)[C@@H](C3CCCC3)C(=O)N(C)[C@H](C(=O)N(C)C)CC(=O)N(C)[C@@H](CC3CC3)C(=O)N[C@@H]([C@@H](C)CC)C(=O)N(C)CC(=O)N(C)[C@H]3C/C=C\CCN(C3=O)[C@@H](Cc3ccc(C)cc3)C(=O)N(C)CC(=O)N[C@@H](CCc3ccc(C(F)(F)F)c(OC)c3)C(=O)N2C1 [PP1903] | B (a compound having 3 or more and less than 10 is denoted as B) | A (a compound having 10 or more and less than 20 is denoted as A) | 5.5 nM
CCC[C@H]1C(=O)N[C@@H]([C@@H](C)CC)C(=O)N(C)CC(=O)N(C)[C@H]2C/C=C\CCN(C2=O)[C@@H](Cc2ccc(C)cc2)C(=O)N(C)CC(=O)N[C@@H](CCc2cc(F)c(C(F)(F)F)c(F)c2)C(=O)N2CCC[C@H]2C(=O)N(C)C2(CCC2)C(=O)N(C)[C@@H](C2CCCC2)C(=O)N(C)[C@H](C(=O)N(C)C)CC(=O)N1C [PP1794] | B (a compound having 3 or more and less than 10 is denoted as B) | A (a compound having 10 or more and less than 20 is denoted as A) | 8.7 nM
CCCC[C@H]1C(=O)N[C@@H]([C@@H](C)CC)C(=O)N(C)CC(=O)N(C)[C@H]2C/C=C\CCN(C2=O)[C@@H](Cc2ccc(C(F)(F)F)cc2)C(=O)N(C)CC(=O)N[C@@H](CCc2cc(F)c(C(F)(F)F)c(F)c2)C(=O)N2C[C@H](F)C[C@H]2C(=O)NC2(CC(C)(C)C2)C(=O)N(C)[C@@H](C2CCCC2)C(=O)N(C)[C@H](C(=O)N(C)C)CC(=O)N1C [PP1693] | A (a compound having 10 or more and less than 20 is denoted as A) | AA (a compound having 20 or more is denoted as AA) | 1.1 nM
CCO[C@@H]1C[C@H]2C(=O)NC3(CCC3)C(=O)N(C)[C@@H](C3CCCC3)C(=O)N(C)[C@H](C(=O)N(C)CC)CC(=O)N(C)[C@@H](CC(C)C)C(=O)N[C@@H]([C@@H](C)CC)C(=O)N(C)CC(=O)N(C)[C@H]3C/C=C\CCN(C3=O)[C@@H](Cc3ccc(C)cc3)C(=O)N(C)CC(=O)N[C@@H](CCc3ccc(C(F)(F)F)c(OC)c3)C(=O)N2C1 [PP1910] | B (a compound having 3 or more and less than 10 is denoted as B) | A (a compound having 10 or more and less than 20 is denoted as A) | 9.7 nM
CCCN(C)C(=O)[C@@H]1CC(=O)N(C)[C@@H](CCOC)C(=O)N[C@@H]([C@@H](C)CC)C(=O)N(C)CC(=O)N(C)[C@H]2C/C=C\CCN(C2=O)[C@@H](Cc2ccc(C(F)(F)F)cc2)C(=O)N(C)CC(=O)N[C@@H](CCc2ccc(C(F)(F)F)c(OC)c2)C(=O)N2C[C@@H](C)C[C@H]2C(=O)NC2(CCC2)C(=O)N(C)[C@@H](C2CCCC2)C(=O)N1C [PP2029] | B (a compound having 3 or more and less than 10 is denoted as B) | A (a compound having 10 or more and less than 20 is denoted as A) | 18.9 nM
